From PubChem BioAssay AID328 (DTP/NCI, 2004)
Values joined by “and” are separate entries in the source; they are usually repeats but may differ in a detail not shown here. Identical values can stand only once. Inconclusive results and toxic doses are left out. Non-standard residues stand in square brackets, D forms with d. Residues, ends and D or L forms follow the SMILES beside them. ξ: configuration not given here. ξF = NC(Cc1ccccc1)C(=O)O

System: BDF1 mice, P388 leukemia ip, median survival T/C
Assay: NCI In Vivo Anticancer Drug Screen. Data for tumor model P388 Leukemia (intraperitoneal) in B6D2F1 (BDF1) mice
Settings: endpoint: median survival time, higher = longer survival
How it was run: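 Reported as T/C, where T is the survival measurement in dosed animals and C the same measurement in vehicle controls.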

[1] = dose: 50.0 mg/kg/injection, schedule: Q01DX009 (ip), vehicle: saline with Tween-80
[2] = dose: 100.0 mg/kg/injection, schedule: Q01DX009 (ip), vehicle: saline with Tween-80
[3] = dose: 200.0 mg/kg/injection, schedule: Q01DX009 (ip), vehicle: saline with Tween-80
[4] = dose: 100.0 mg/kg/injection, schedule: Q01DX009 (ip), vehicle: Klucel (hydroxypropylcellulose) (HPC)
[5] = dose: 200.0 mg/kg/injection, schedule: Q01DX009 (ip), vehicle: Klucel (hydroxypropylcellulose) (HPC)
[6] = dose: 200.0 mg/kg/injection, schedule: Q04DX003 (ip), vehicle: saline
[7] = dose: 400.0 mg/kg/injection, schedule: Q04DX003 (ip), vehicle: saline
[8] = dose: 100.0 mg/kg/injection, schedule: Q04DX003 (ip), vehicle: saline with Tween-80
[9] = dose: 200.0 mg/kg/injection, schedule: Q04DX003 (ip), vehicle: saline with Tween-80
[10] = dose: 400.0 mg/kg/injection, schedule: Q01DX009 (ip), vehicle: saline with Tween-80
[11] = dose: 400.0 mg/kg/injection, schedule: Q04DX003 (ip), vehicle: saline with Tween-80
[12] = dose: 50.0 mg/kg/injection, schedule: Q01DX009 (ip), vehicle: Klucel (hydroxypropylcellulose) (HPC)

Cc1c2cc3c(c1O)C(=O)CC(O3)c1ccc(O)c(c1)-c1ccc(O)c(c1)C(=O)OCC1OC(O2)C(O)C(O)C1O (centres undefined) was tested, and the T/C (dose: 0.13 mg/kg/injection, schedule: Q01DX009 (ip), vehicle: Klucel (hydroxypropylcellulose) (HPC)) was 109 % of control, the T/C (dose: 0.25 mg/kg/injection, schedule: Q01DX009 (ip), vehicle: Klucel (hydroxypropylcellulose) (HPC)) was 106 % of control and the T/C (dose: 0.5 mg/kg/injection, schedule: Q01DX009 (ip), vehicle: Klucel (hydroxypropylcellulose) (HPC)) was 112 % of control. The T/C (dose: 1.0 mg/kg/injection, schedule: Q01DX009 (ip), vehicle: Klucel (hydroxypropylcellulose) (HPC)) was 112 % of control.

In the case of CCOC(=S)SCC(=O)Nc1ccc(Br)cc1, the T/C (dose: 15.0 mg/kg/injection, schedule: Q01DX009 (ip), vehicle: saline with Tween-80) is reported as 93 % of control, the T/C (dose: 30.0 mg/kg/injection, schedule: Q01DX009 (ip), vehicle: saline with Tween-80) is reported as 96 % of control and the T/C (dose: 60.0 mg/kg/injection, schedule: Q01DX009 (ip), vehicle: saline with Tween-80) is reported as 98 % of control.

In the case of FC(F)(F)c1cc(-c2ccc(C3Nc4ccccc4-n4cccc43)o2)cc(C(F)(F)F)c1 (centres undefined), the T/C [1] is reported as 92 % of control, the T/C [2] is reported as 90 % of control and the T/C [3] is reported as 92 % of control.

In the case of O=[N+]([O-])c1ccc(-c2nnc3ncccn23)cc1, the T/C [1] is reported as 102 % of control, the T/C [2] is reported as 98 % of control and the T/C [3] is reported as 90 % of control.

With CN(C)c1ccc(Cc2ccc(N(C)C)cc2[N+](=O)[O-])cc1 the T/C (dose: 100.0 mg/kg/injection, schedule: Q04DX003 (ip), vehicle: Klucel (hydroxypropylcellulose) (HPC)) was 100 % of control, the T/C (dose: 200.0 mg/kg/injection, schedule: Q04DX003 (ip), vehicle: Klucel (hydroxypropylcellulose) (HPC)) was 95 % of control and the T/C (dose: 400.0 mg/kg/injection, schedule: Q04DX003 (ip), vehicle: Klucel (hydroxypropylcellulose) (HPC)) was 104 % of control.

For CCCn1cnc2c(SCc3ccccc3Cl)nc(N)nc21, the T/C [4] was 90 % of control, the T/C (dose: 100.0 mg/kg/injection, schedule: Q04DX003 (ip), vehicle: other) was 100 % of control and the T/C [5] was 95 % of control. For the same compound, the T/C (dose: 200.0 mg/kg/injection, schedule: Q04DX003 (ip), vehicle: other) was 95 % of control and the T/C (dose: 400.0 mg/kg/injection, schedule: Q04DX003 (ip), vehicle: other) was 104 % of control.

With CCOC(=O)C1OC(n2cnc3c(N)ncnc32)C(O)C1O (centres undefined) the T/C (dose: 6.25 mg/kg/injection, schedule: Q01DX009 (ip), vehicle: saline) was 103 % of control, the T/C (dose: 12.5 mg/kg/injection, schedule: Q01DX009 (ip), vehicle: saline) was 94 % of control and the T/C (dose: 25.0 mg/kg/injection, schedule: Q01DX009 (ip), vehicle: saline) was 94 % of control. The T/C (dose: 50.0 mg/kg/injection, schedule: Q01DX009 (ip), vehicle: saline) was 92 % of control.

With CNC(=S)N/N=C/C(=O)c1ccco1 the T/C (dose: 22.5 mg/kg/injection, schedule: Q01DX009 (ip), vehicle: saline with Tween-80) was 104 % of control, the T/C (dose: 45.0 mg/kg/injection, schedule: Q01DX009 (ip), vehicle: saline with Tween-80) was 98 % of control and the T/C (dose: 90.0 mg/kg/injection, schedule: Q01DX009 (ip), vehicle: saline with Tween-80) was 105 % of control.

c1c(NC2=NCCO2)cc2c3c1CCCN3CCC2 was tested, and the T/C (dose: 12.5 mg/kg/injection, schedule: Q01DX009 (ip), vehicle: saline with Tween-80) was 104 % of control, the T/C (dose: 25.0 mg/kg/injection, schedule: Q01DX009 (ip), vehicle: saline with Tween-80) was 118 % of control and the T/C [1] was 113 % of control.

For CC1CC(C)(C)N=C(C(Cc2ccc(Br)cc2)c2ccccc2)O1 (centres undefined), the T/C (dose: 100.0 mg/kg/injection, schedule: Q01DX001 (ip), vehicle: saline sonified) was 95 % of control, the T/C (dose: 200.0 mg/kg/injection, schedule: Q01DX001 (ip), vehicle: saline sonified) was 110 % of control and the T/C (dose: 400.0 mg/kg/injection, schedule: Q01DX001 (ip), vehicle: saline sonified) was 110 % of control.

NC(Cc1ccccc1)C(=O)NCC(=O)O (centres undefined) (H-[ξF]-Gly-OH) was tested, and the T/C (dose: 100.0 mg/kg/injection, schedule: Q04DX003 (ip), vehicle: saline) was 100 % of control, the T/C [6] was 100 % of control and the T/C [7] was 100 % of control.

In the case of O=c1cc(Cl)c2ccccc2[nH]1, the T/C [2] is reported as 100 % of control, the T/C [8] is reported as 109 % of control and the T/C [3] is reported as 91 % of control. The T/C [9] was 100 % of control, the T/C [10] was 100 % of control and the T/C [11] was 100 % of control.

O=S(=O)(Nc1ccc(NS(=O)(=O)c2ccccc2)cc1)c1ccccc1 was tested, and the T/C (dose: 3.12 mg/kg/injection, schedule: Q01DX009 (ip), vehicle: Klucel (hydroxypropylcellulose) (HPC)) was 100 % of control, the T/C (dose: 6.25 mg/kg/injection, schedule: Q01DX009 (ip), vehicle: Klucel (hydroxypropylcellulose) (HPC)) was 100 % of control and the T/C (dose: 12.5 mg/kg/injection, schedule: Q01DX009 (ip), vehicle: Klucel (hydroxypropylcellulose) (HPC)) was 95 % of control. The T/C [4] was 96 % of control.

For O=CN(SSN(C=O)C1CCCCC1)C1CCCCC1, the T/C [1] was 108 % of control and 116 % of control and the T/C [2] was 122 % of control.

CCN1CC2(COC)C(O)CC(OC)C34C5CC6(O)C(OC)C=C(C5C6OC(=O)c5ccc(OC)c(OC)c5)C(C(OC)C23)C14 (centres undefined) was tested, and the T/C (dose: 0.19 mg/kg/injection, schedule: Q01DX009 (ip), vehicle: saline with Tween-80) was 120 % of control, the T/C (dose: 0.38 mg/kg/injection, schedule: Q01DX009 (ip), vehicle: saline with Tween-80) was 94 % of control and the T/C (dose: 0.75 mg/kg/injection, schedule: Q01DX009 (ip), vehicle: saline with Tween-80) was 90 % of control.

For CCN(CC)S(=O)(=O)c1ccc(-c2cc(Cl)c3cc(S(=O)(=O)F)ccc3n2)cc1, the T/C [2] was 110 % of control, the T/C [3] was 90 % of control and the T/C [10] was 100 % of control.

In the case of CNC(=O)C(C)(C)Br, the T/C [6] is reported as 100 % of control and the T/C [7] is reported as 90 % of control.

With CC1(C)COCN1COC1CCCCC1 the T/C [3] was 90 % of control.

For Cc1ccc(N)c(CSc2ccccc2)c1, the T/C (dose: 50.0 mg/kg/injection, schedule: Q04DX002 (ip), vehicle: saline with Tween-80) was 95 % of control, the T/C (dose: 100.0 mg/kg/injection, schedule: Q04DX002 (ip), vehicle: saline with Tween-80) was 97 % of control and the T/C (dose: 200.0 mg/kg/injection, schedule: Q04DX002 (ip), vehicle: saline with Tween-80) was 98 % of control.

CN(C)/N=N/c1nc[nH]c1C(N)=O was tested, and the T/C (dose: 25.0 mg/kg/injection, schedule: Q01DX010 (ip), vehicle: saline) was 116 % of control, the T/C [12] was 100 % of control and 108 % of control and 123 % of control and the T/C (dose: 50.0 mg/kg/injection, schedule: Q01DX010 (ip), vehicle: saline) was 100 % of control. The T/C [4] was 92 % of control and 97 % of control and 100 % of control, the T/C [5] was 100 % of control (2×) and 115 % of control and the T/C (dose: 208.0 mg/kg/injection, schedule: Q01DX001 (ip), vehicle: carboxymethylcellulose (CMC)) was 109 % of control. The T/C (dose: 275.0 mg/kg/injection, schedule: Q01DX001 (ip), vehicle: carboxymethylcellulose (CMC)) was 110 % of control and 116 % of control, the T/C (dose: 400.0 mg/kg/injection, schedule: Q01DX009 (ip), vehicle: Klucel (hydroxypropylcellulose) (HPC)) was 115 % of control and 122 % of control and 123 % of control and the T/C (dose: 418.0 mg/kg/injection, schedule: Q01DX001 (ip), vehicle: carboxymethylcellulose (CMC)) was 119 % of control. The T/C (dose: 775.0 mg/kg/injection, schedule: Q01DX001 (ip), vehicle: carboxymethylcellulose (CMC)) was 158 % of control.

For COc1ccc(C2C=CC(c3ccccc3)C(c3ccccc3)C2[N+](=O)[O-])cc1OC (centres undefined), the T/C [8] was 100 % of control, the T/C [9] was 100 % of control and the T/C [11] was 90 % of control.

With [Cl][Pt+2]([Cl])([Cl])[Cl].c1ccc(C2CC[N-]CC2)cc1.c1ccc(C2CC[N-]CC2)cc1 the T/C (dose: 25.0 mg/kg/injection, schedule: Q01DX009 (ip), vehicle: Klucel (hydroxypropylcellulose) (HPC)) was 121 % of control, the T/C (dose: 25.0 mg/kg/injection, schedule: Q01DX009 (ip), vehicle: water) was 103 % of control and 122 % of control and the T/C [12] was 112 % of control. For the same compound, the T/C (dose: 50.0 mg/kg/injection, schedule: Q01DX009 (ip), vehicle: water) was 112 % of control, the T/C (dose: 50.0 mg/kg/injection, schedule: Q04DX003 (ip), vehicle: water) was 109 % of control and the T/C [4] was 121 % of control. For the same compound, the T/C (dose: 100.0 mg/kg/injection, schedule: Q01DX009 (ip), vehicle: water) was 90 % of control, the T/C (dose: 100.0 mg/kg/injection, schedule: Q04DX003 (ip), vehicle: water) was 105 % of control and the T/C (dose: 200.0 mg/kg/injection, schedule: Q04DX003 (ip), vehicle: water) was 98 % of control. The T/C (dose: 400.0 mg/kg/injection, schedule: Q04DX003 (ip), vehicle: water) was 89 % of control.
